US4366143A, “Assay for the free portion of substances in biological fluids” (Amersham International Public Limited Company, priority 1979, dated 1982)

Assays:
[1] = test system: sex hormone binding globulin (SHBG); conditions: cited from earlier work
[2] = test system: plasma proteins such as sex hormone binding globulin and albumin; conditions: cited from earlier work
[3] = molecular target: T1, transcortin (Homo sapiens, UniProt P08185); assay: Binding of cortisol tracers to serum proteins / transcortin with and without ANS (Example 4); conditions: for % Tracer Bound to Serum Proteins (Corrected for Non-Specific Binding): charcoal extracted human serum
T1 construct: charcoal extracted human serum; from tissue; host or cells: human serum, charcoal extracted (unpurified)
T1 sequence (P08185 23-405): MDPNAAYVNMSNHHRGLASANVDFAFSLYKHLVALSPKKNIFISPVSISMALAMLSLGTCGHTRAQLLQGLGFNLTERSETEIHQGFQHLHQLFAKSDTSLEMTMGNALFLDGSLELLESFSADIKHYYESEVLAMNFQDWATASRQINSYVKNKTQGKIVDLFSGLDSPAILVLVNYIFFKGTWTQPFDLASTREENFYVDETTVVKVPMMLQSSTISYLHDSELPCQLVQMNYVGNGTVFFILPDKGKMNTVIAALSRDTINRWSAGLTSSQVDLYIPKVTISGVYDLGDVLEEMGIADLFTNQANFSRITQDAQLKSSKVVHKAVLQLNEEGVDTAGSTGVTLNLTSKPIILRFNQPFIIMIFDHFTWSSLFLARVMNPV
Method: The protocol was as follows:
B. 200 μl buffer (containing either 0 or 600 μg of 8-anilinonaphthalene sulphonic acid (ANS) as a cortisol binding site blocking agent).
A mixture of A and B was incubated at 37° C. for one hour. […] The reaction tubes were mixed for one hour at room temperature. A 0.5 ml aliquot of the supernatant was then removed for counting.

[4] = test system: TBG; conditions: cited from earlier work
[5] = test system: TBPA; conditions: cited from earlier work
[6] = test system: antibodies; conditions: cited from earlier work
[7] = molecular target: T2, TBG (Homo sapiens, UniProt P05543); assay: Binding of T4 derivatives to TBG, from antibody binding in presence and absence of blocking agent (Example 7)
T2 sequence (P05543 21-415): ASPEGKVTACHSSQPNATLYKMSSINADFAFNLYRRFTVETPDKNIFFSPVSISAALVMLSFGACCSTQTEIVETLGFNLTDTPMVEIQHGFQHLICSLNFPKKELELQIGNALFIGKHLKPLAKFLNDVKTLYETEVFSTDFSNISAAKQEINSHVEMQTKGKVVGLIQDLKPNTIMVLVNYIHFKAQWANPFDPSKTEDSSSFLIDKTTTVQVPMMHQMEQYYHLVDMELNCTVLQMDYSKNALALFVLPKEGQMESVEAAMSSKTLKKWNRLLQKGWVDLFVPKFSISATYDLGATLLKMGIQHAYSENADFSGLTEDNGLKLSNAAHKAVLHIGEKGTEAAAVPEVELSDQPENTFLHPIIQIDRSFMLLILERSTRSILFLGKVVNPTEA
Method: (§1) The dominant binding protein for T4 in serum is TBG, and the binding site for T4 on this protein may be blocked by adding an appropriate concentration of thiomersalate to the buffer.
(§2) The labelled T4 derivative was dissolved in 0.01 molar phosphate, pH 7.4 containing 0.9% sodium chloride and 0.1% gelatin to give a radioactive concentration of approximately 0.05 microcuries per milliliter. In the part of the experiment where the blocking agent was used, this buffer contained 1.8% thiomersal.
(§3) A solid phase T4 specific antibody was used that consisted of a pre-precipitated double antibody complex made by reacting sheep anti-T4 serum and donkey anti-rabbit gamma globulin serum in the abovementioned phosphate buffer. A concentration of this solid phase T4 antibody suspension was chosen that bound approximately 50% of ^125 I-T4 tracer in the presence of blocking agent under the experimental conditions used.
(§4) The binding of the labelled T4 derivatives was tested as follows:
(§5) 50 μl human serum (depleted of T4 by resin extraction)
(§6) 500 μl labelled T4 derivative (with or without blocking agent)
(§7) 1.0 ml solid phase T4 antibody suspension
(§8) Tubes were incubated for 2 hours at 37° C. and then centrifuged to settle the solid phase antibody. The supernatant solution was decanted and the radioactivity in the solid phase measured.
The right-hand column of the above table sets out the ratio of the figures in the two other columns. As a rule of thumb, it may be said that this ratio should be at least 0.6, preferably at least 0.9 for the compound tested to be worth considering for use in the free T4 assay. It should be noted, however, that these figures are valid only for the free T4 assay and not necessarily for other free ligand assays.

[8] = test system: solid phase T4 specific antibody; assay: Binding of labelled T4 derivatives to solid phase T4 antibody with and without thiomersal (Example 7); parameters: species or system sheep; conditions: 125I-labelled T4 derivative
Method: as §1, §2, §3, §4, §5, §6, §7, §8

[9] = test system: thyroxine binding globulin (TBG), thyroxine binding pre-albumin (TBPA) and albumin (Alb); conditions: blood serum or plasma; cited from earlier work
[10] = test system: TBPA; conditions: blood stream of human beings; cited from earlier work
[11] = test system: Albumin; conditions: blood stream of human beings; cited from earlier work
[12] = molecular target: T2, TBG; conditions: blood stream of human beings; cited from earlier work
[13] = test system: T4-binding reagent (pre-precipitated double antibody complex, sheep anti-T4 serum); assay: Free T4 assay using N-acetyl-thyroxine-dimethylamide, tracer bound to T4-binding reagent (Example 6)
Excerpt: The labelled derivative of the ligand was N-acetyl-thyroxine-dimethylamide,labelled by iodine-125 exchange using sodium iodide I^125 and chloromine-T. The specific activity was 1000 millicuries per milligram. The tracer concentration was 0.5 μCi/ml.
The specific binder was a pre-precipitated double antibody complex made from sheep anti-T4 serum and donkey anti-rabbit γ globulin serum. This reagent is referred to as the T4-binding reagent.
The buffer was 0.01 molar phosphate, pH 7.4, containing 9.0 g/l NaCl, 1.0 g/l NaN3 and 1.0 g/l gelatin. 50 micro-liters of a serum sample or standard was mixed with 500 micro-liters of the tracer solution and 1000 micro-liters of the T4-binding reagent. The mixture was incubated for 2 hours at 37° C., centrifuged, decanted, and drained. The radioactivity of the precipitate was measured.

[14] = test system: sheep-anti-T4 serum; assay: Free T4 assay, tracer N-acetyl-thyroxine-methyl ester bound to sheep anti-T4 serum (standard curve, Example 1); type: binding
Excerpt: The labelled derivative of the ligand was N-acetyl-thyroxine-methyl ester, labelled by iodine-125 exchange using sodium iodide-I^125 and chloramine-T. The specific activity was 1500 millicuries per milligram. The tractor concentration was 90 picomolar.
The specific binder was a solution of sheep-anti-T4 serum raised against thyroxine methyl ester coupled to bovine serum albumin by carbodiimide. The final dilution was 1/60,000 in buffer.
The buffer contained 13.6 g/l KH2 PO4, 9.0 g/l NaCl, 0.07 g/l NaN3 and 1.0 g/l gelatin.
50 micro-liters of a serum sample was mixed with 200 micro-liters of the radioactive ligand derivative solution and 200 micro-liters of specific binder solution and the mixture incubated at room temperature for one hour. Then 1 milli-liter of polyethyleneglycol solution (20%) was added, and the reaction mixture centrifuged. The supernatant liquid was decanted and the radioactivity of the precipitate was measured.

[15] = test system: transcortin and albumin; conditions: cited from earlier work

Row | Compound | Ratio (% bound to antibody, thiomersal absent / present) [7] | binding to TBG (in words) [7] | suitability of TBG binding reduction for free-T4 assay (in words) [7] | % of T4 derivative bound to antibody ([8]; Thiomersal absent) [%] | % of T4 derivative bound to antibody ([8]; Thiomersal present) [%] | also measured
1 | C[C@]12CC[C@H]3[C@@H](CCC4=CC(=O)CC[C@@]43C)[C@@H]1CC[C@@H]2O (stereo in doubt) [testosterone] |  |  |  |  |  | binding to SHBG (in words) [1]: bind strongly; proportion bound to plasma proteins [2]: > 90%
2 | C[C@]12CCC(=O)C=C1CC[C@@H]1[C@@H]2[C@@H](O)C[C@@]2(C)[C@H]1CC[C@]2(O)C(=O)CO [Cortisol (H^3), Cortisol, reference compound] |  |  |  |  |  | binding to transcortin (in words) [3]: binds strongly to transcortin; % Tracer Bound to Serum Proteins (Corrected for Non-Specific Binding) ([3]; ANS 0 μg/tube): 28%; % Tracer Bound to Serum Proteins (Corrected for Non-Specific Binding) ([3]; ANS 600 μg/tube): 3.5%; displacement from transcortin by ANS blocking agent (in words) ([3]; high concentrations of ANS): displaced at high concentrations of the ANS blocking agent
3 | N[C@H](Cc1cc(I)c(Oc2cc(I)c(O)c(I)c2)c(I)c1)C(=O)O [D-T4, D-Thyroxine] | 0.48 | bound less by TBG | not reduced enough for consideration as a T4 derivative for a free-T4 assay | 24 | 50 | binding to TBG relative to L-Thyroxine / T4 (in words) [4]: substantially less than that of L-Thyroxine; binding to TBPA relative to L-Thyroxine / T4 (in words) [5]: substantially less than that of L-Thyroxine; binding to antibodies relative to L-Thyroxine / T4 (in words) [6]: binds as strongly to antibodies as does the naturally occurring L-Thyroxine
4 | COC(=O)[C@@H](Cc1cc(I)c(Oc2cc(I)c(O)c(I)c2)c(I)c1)NC(C)=O [D-T4/A, N-Acetyl D-T4-methylester] | 1.00 | appears to decrease this binding to TBG even further | sufficiently reduced binding to TBG for use in the free-T4 assay | 38 | 38 | 
5 | N[C@@H](Cc1cc(I)c(Oc2cc(I)c(O)c(I)c2)c(I)c1)C(=O)O [L-T4, thyroxine, reference compound] | 0.24 | bound appreciably by TBG |  | 12 | 50 | bound to naturally occurring binding proteins [9]: approximately 99.98%; percentage of T4 bound to TBPA [10]: 20-25%; percentage of T4 bound to Albumin [11]: 5-10%; percentage of T4 bound to TBG [12]: approximately 70%
6 | COC(=O)[C@H](Cc1cc(I)c(Oc2cc(I)c(O)c(I)c2)c(I)c1)NC(C)=O [L-T4/A, N-Acetyl-L-T4-methylester] | 0.90 | appears to bind much less strongly to TBG than does L-T4 | sufficiently reduced binding to TBG for use in the free-T4 assay | 36 | 40 | 
7 | CC(=O)N[C@@H](Cc1cc(I)c(Oc2cc(I)c(O)c(I)c2)c(I)c1)C(=O)O [L-T4/F, N-Acetyl-L-T4] | 0.42 | bound to TBG to about the same extent as D-T4 | not reduced enough for consideration as a T4 derivative for a free-T4 assay | 22 | 52 | 
8 | CCNC(=O)[C@H](Cc1cc(I)c(Oc2cc(I)c(O)c(I)c2)c(I)c1)NC(C)=O [L-T4/L, N-Acetyl-L-T4-monoethylamide] | 0.35 | bound to TBG to about the same extent as D-T4 | not reduced enough for consideration as a T4 derivative for a free-T4 assay | 21 | 60 | 
9 | CC(=O)N[C@@H](Cc1cc(I)c(Oc2cc(I)c(O)c(I)c2)c(I)c1)C(=O)N(C)C [L-T4/M, N-Acetyl-L-T4-dimethylamide] | 1.00 | appears to have minimal binding to TBG | sufficiently reduced binding to TBG for use in the free-T4 assay | 50 | 50 | 
10 | CC(=O)N[C@@H](Cc1cc(I)c(Oc2cc(I)c(O)c(I)c2)c(I)c1)C(=O)N(C)C [N-acetyl-thyroxine-dimethylamide] |  |  |  |  |  | % Radioactivity in Solid Phase ([13]; Free T4 0 ng/dl, mean of duplicate tubes): 38%; % Radioactivity in Solid Phase ([13]; Free T4 0.18 ng/dl, mean of duplicate tubes): 22%; % Radioactivity in Solid Phase ([13]; Free T4 0.9 ng/dl, mean of duplicate tubes): 11%; % Radioactivity in Solid Phase ([13]; Free T4 3.0 ng/dl, mean of duplicate tubes): 6.0%; % Radioactivity in Solid Phase ([13]; Free T4 5.7 ng/dl, mean of duplicate tubes): 3.6%; % Radioactivity in Solid Phase ([13]; non-pregnant euthyroid control): 7.1%; % Radioactivity in Solid Phase ([13]; pregnant euthyroid control): 6.8%
11 | COC(=O)[C@H](Cc1cc(I)c(Oc2cc(I)c(O)c(I)c2)c(I)c1)NC(C)=O [N-acetyl-thyroxine-methyl ester] |  |  |  |  |  | % Radioactivity in Solid Phase ([14]; Free T4 0.0 ng/dl): 58%; % Radioactivity in Solid Phase ([14]; Free T4 0.2 ng/dl): 55%; % Radioactivity in Solid Phase ([14]; Free T4 1.0 ng/dl): 47%; % Radioactivity in Solid Phase ([14]; Free T4 3.0 ng/dl): 34%; % Radioactivity in Solid Phase ([14]; Free T4 5.8 ng/dl): 22%
12 | C[C@]12CCC(=O)C=C1CC[C@@H]1[C@@H]2[C@@H](O)C[C@@]2(C)[C@H]1CC[C@]2(O)C(=O)CO [cortisol] |  |  |  |  |  | cortisol in free form in blood plasma [15]: ~8%
13 | C[C@]12CC[C@@H]3c4ccc(O)cc4CC[C@H]3[C@@H]1CC[C@@H]2O [oestradiol] |  |  |  |  |  | binding to SHBG (in words) [1]: bind strongly
14 | CC(=O)[C@H]1CC[C@H]2[C@@H]3CCC4=CC(=O)CC[C@]4(C)[C@H]3CC[C@]12C [progesterone] |  |  |  |  |  | proportion bound to plasma proteins [2]: > 90%
